According to PubChem BioAssay (NCI):
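Briefly, cells in 96-well plates were exposed to five compound concentrations for 48 h, and endpoints were estimated by linear interpolation. TGI is the concentration that stops growth completely.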

Experiments:
Assay in all cases: NCI tumour cell line growth inhibition, 48 h
786-0 renal = system: 786-0 renal
A498 renal = system: A498 renal
ACHN renal = system: ACHN renal
COLO 205 colon = system: COLO 205 colon
DU-145 prostate = system: DU-145 prostate
EKVX NSCLC = system: EKVX NSCLC
HOP-62 NSCLC = system: HOP-62 NSCLC
HT29 colon = system: HT29 colon
MDA-MB-231 breast = system: MDA-MB-231 breast
MDA-MB-435 = system: MDA-MB-435
NCI-H460 lung = system: NCI-H460 lung
NCI-H522 lung = system: NCI-H522 lung
SF-268 CNS = system: SF-268 CNS
SF-295 CNS = system: SF-295 CNS
SK-OV-3 ovarian = system: SK-OV-3 ovarian
T-47D breast = system: T-47D breast
TK-10 renal = system: TK-10 renal
U251 CNS = system: U251 CNS
UO-31 renal = system: UO-31 renal

SMILES | TGI (786-0 renal) [µM] | TGI (A498 renal) [µM] | TGI (ACHN renal) [µM] | TGI (COLO 205 colon) [µM] | TGI (DU-145 prostate) [µM] | TGI (EKVX NSCLC) [µM] | TGI (HOP-62 NSCLC) [µM] | TGI (HT29 colon) [µM] | TGI (MDA-MB-231 breast) [µM] | TGI (MDA-MB-435) [µM] | TGI (NCI-H460 lung) [µM] | TGI (NCI-H522 lung) [µM] | TGI (SF-268 CNS) [µM] | TGI (SF-295 CNS) [µM] | TGI (SK-OV-3 ovarian) [µM] | TGI (T-47D breast) [µM] | TGI (TK-10 renal) [µM] | TGI (U251 CNS) [µM] | TGI (UO-31 renal) [µM]
CC1(C)CN=C(c2ccc3c(c2)Cc2cc(C4=NCC(C)(C)N4)ccc2-3)N1 | > 100 | > 100 | > 100 | > 100 | > 100 | > 100 | > 100 | > 100 | > 100 | 98.9 | > 100 | 83.6 | > 100 | > 100 | > 100 | > 100 | > 100 | 64.8 | > 100
COc1ccc2nc3c([N+](=O)[O-])ccc4c3c(c2c1)N=CN4CCCN(C)C | 14.3 | 21.4 | 15.3 | 5.77 | 13.9 | 16.2 | 15.1 | 12.5 | 8.27 | 20.1 | 16.3 | 9.61 | 17.8 | 18.2 | 25.3 | 27.4 | 6.51 | 24.3 | 10.7
O=C1C(=O)c2c(oc(=O)c3ccccc23)-c2ccccc21 | > 25 | > 25 | > 25 | > 25 | > 25 | > 25 | > 25 | > 25 | > 25 | 20.9 | > 25 | > 25 | > 25 | > 25 | > 25 | > 25 | > 25 | > 25 | > 25
CC(=O)C(=[N+]=[N-])C(=O)NCC#N | > 10 | > 10 | > 10 | > 10 | > 10 | > 10 | > 10 | > 10 | > 10 | > 10 | > 10 | > 10 | > 10 | > 10 | > 10 | > 10 | > 10 | > 10 | > 10
CC(C)=CCC[C@@H](C)C1=C(O)C(O)C(C)=C2N=C(c3ccccc3)C(=O)OC21 (stereo partly drawn) | > 20.5 | > 13.1 | > 13.7 | > 25 | > 25 | > 25 | 8.5 | 18.5 | 17.3 | > 25 | > 17 | 1.9 | > 25 | > 10.9 | 11.1 | 8.66 | > 25 | > 25 | 14.6
CCOC(=O)NNC(=O)C1CSC(c2ccccc2)N1C(C)=O (stereo not drawn) | > 100 | > 100 | > 100 | > 100 | > 100 | > 100 | > 100 | > 100 | > 100 | > 100 | > 100 | > 100 | > 100 | > 100 | > 100 | > 100 | > 100 | > 100 | > 100
O=C(c1ccccc1)c1ccc2nc3n(c2c1)C(c1c(F)cccc1F)SC3 (stereo not drawn) | 47.8 | 13.5 | 24.8 | 21.7 | > 74 | > 48.4 | 52.2 | 39.5 | > 100 | 3.96 | 52.2 | 6.14 | > 70.2 | 13.8 | 26.7 | 33 | > 100 | > 63.4 | 56.5
CN1C2CCC1CC(CCOC(c1ccc(F)cc1)c1ccc(F)cc1)C2 (stereo not drawn) | 30.7 | 36.1 | 30.8 | 24.1 | 33.5 | 27.7 | 30.9 | 19.1 | 29.7 | 25.7 | 32.2 | 31.9 | 29.2 | 30.8 | 31.2 | 39.2 | 28.8 | 28.1 | 27.9
COc1cc(/C=C(\C#N)c2nc3ccccc3o2)ccc1O | 66.4 | 34.8 | 46.9 | 33 | 65.1 | 49.6 | 52.8 | 48.1 | 68.5 | 41.6 | 48.4 | 27.8 | 50.7 | 36.8 | 36.7 | 46.9 | 75 | 36.2 | 85.9
O=C1NC(=O)C(Cc2ccccc2)(c2cccnc2)N1 (stereo not drawn) | > 100 | > 100 | > 100 | > 100 | > 100 | > 100 | > 100 | > 100 | > 100 | > 100 | > 100 | > 100 | > 100 | > 100 | > 100 | > 100 | > 100 | > 100 | > 100
Cc1cc(C)nc(NS(=O)(=O)c2ccc(Nc3c4ccccc4nc4c(C(=O)NNCCO)cccc34)cc2)n1 | > 100 | > 100 | > 100 | > 100 | > 100 | > 100 | > 100 | > 100 | > 100 | > 100 | > 100 | > 100 | > 100 | > 100 | > 100 | > 100 | > 100 | > 100 | > 100
CN1CCC2(CC1)SC[C@H]1C(=O)N(c3ccc(Cl)cc3)C(=O)N12 | > 100 | 86.3 | > 100 | > 100 | > 100 | > 100 | > 100 | > 100 | > 100 | > 100 | > 100 | > 100 | > 100 | > 100 | > 100 | > 100 | > 100 | > 100 | > 100
